Reference: PMC8424644, “Thermodynamic Stability and Speciation of Ga(III) and Zr(IV) Complexes with High-Denticity Hydroxamate Chelators” (Inorganic Chemistry, 2021)
Marks after values point to notes of the source that are not given here.

Legend:
Assay type in all cases: physicochemical
[1] = Fe(III) complex stability, potentiometric titrations; details: 25 °C, I = 0.1 M NaClO4
Text: To evaluate the thermodynamic stability of Ga(III) and Zr(IV) complexes of the investigated ligands, the binding properties and speciation of Fe(III) complexes have first been determined (all the details are given in the Supporting Information). There are several reasons for this protocol. First, (i) the electron configuration of Ga(III) (d^10) and Zr(IV) (d^0) hinders the attainment of spectral information for most of the complexes. Furthermore, (ii) both metal ions are highly acidic and they are readily hydrolyzed over almost the entire pH range. In addition, (iii) the high charge to size ratio of the Zr(IV) ion implies the formation of complexes with an exceptional thermodynamic stability (already at very low pH); as a consequence, the stability constants cannot be directly determined using standard potentiometric titrations. Thus, the thermodynamic stability constants of the Fe(III)-H3L1 and Fe(III)-H4L2 systems were first determined (using a combination of potentiometric and pH-dependent UV–vis titrations), followed by Fe(III)–Ga(III) and Fe(III)–Zr(IV) metal–metal competition experiments. […]
Accordingly, the following speciation could be drawn from the spectra collected: the complexes formation starts at pH<1 involving two hydroxamate groups coordinated to Fe(III) ion, while the three hydroxamate complexes are observed over pH range 3-9. Above pH 9, the absorbance begins to […]

[2] = pZr calculation (ligand sequestering ability); details: for pZr: pZr = −log[Zr(IV)free], pH 7.4, cL = 10 μM, cZr(IV) = 1 μM
Text: Despite a large variety of PET chelators synthesized and tested in order to provide strong coordination of Ga(III) and Zr(IV) in vivo, until now it is has been hard to avoid the release of these metal ions in the body. Here we report two new Ga(III) and Zr(IV) hydroxamate chelators, designed to achieve an efficient sequestering of these metal ions but also to understand how the cyclization and the introduction of an additional hydroxamate group influences the stability of Zr(IV) complexes. Therefore, it is important to evaluate and compare the Ga(III)- and Zr(IV)-sequestering abilities of H3L1 and H4L2 with those of other chelators. However, the direct comparison of the stability constants of metal complexes is not straightforward, and other tools taking into account all the physicochemical properties of the ligands, i.e. their denticity, coordination modes, and acid–base properties, should be used.[52] In order to reliably compare the chelating abilities of H3L1 and H4L2 toward Ga(III) and Zr(IV) ions, the pM values were calculated. pFe was originally introduced by Raymond for the comparison of iron-siderophore systems;[53] pGa = −log[Ga(III)free] and pZr = −log[Zr(IV)free] were calculated at pH 7.4 with cL = 10 μM and cGa(III)/Zr(IV) = 1 μM (Table 2).

[3] = Fe(III)-L + Zr(IV)-NTA metal–metal competition UV–vis titrations; details: log β[ZrL2] vs log β[ZrL1]

Compound | log β [FeL] [1] | pZr [2] | increase in log β of the Zr(IV) complex with respect to Zr(IV)-H3L1 [3] | log β [FeHL] [1] | pZr higher than the values for Zr(IV)-DFOB and Zr(IV)-H3L1 [2] [units]
O=C1CCCN(O)C(=O)CCCNC(=O)CCCN(O)C(=O)CCCNC(=O)CCCN(O)C(=O)CCCN1 [H3L1, 1,11,21-Trihydroxy-1,6,11,16,21,26-hexaazacyclotriacontane-2,7,12,17,22,27-hexaone] | 28.7(1) ^d | 32.4 |  |  | 
N[C@H]1CCCCNC(=O)CCCN(O)C(=O)CCCNC(=O)CCCN(O)C(=O)CCCNC(=O)CCCN(O)C(=O)CCCNC(=O)CCCN(O)C(=O)CCCNC1=O [H4L2, (S)-43-Amino-6,16,26,36-tetrahydroxy-1,6,11,16,21,26,31,36,41-nonaazacycloheptatetracontane-2,7,12,17,22,27,32,37,42-nonaone] |  | 37.0 | 8.5 orders of magnitude | 36.82(6) ^d | > 4
